Results taken from PubChem BioAssay AID1259407 (Chemical Carcinogenesis Research Information System (CCRIS), 2018).
The source made the active and inactive calls. The rule behind the calls is not given here.

Tested on: CCRIS mutagenicity, Ames/micronucleus/aberration tests
Test: CCRIS mutagenicity studies
[1] = Test System: AMES SALMONELLA TYPHIMURIUM, Strain/Indicator: TA98, Metabolic Activation: NONE, Method: PREINCUBATION

Measured: mutagenic call

C[C@]12CCC(=O)C=C1CC[C@@H]1[C@@H]2CC[C@]2(C)C(=O)CC[C@@H]12
inactive: End Point: In vivo micronucleus, Test System: Micronucleated bone marrow polychromatic erythrocytes, Species: Rat, Strain/Sex: F344/N / Male, Route: Oral inactive; negative | End Point: In vivo micronucleus, Test System: Micronucleated normochromatic erythrocytes in peripheral blood, Species: Mouse, Strain/Sex: B6C3F1/Female, Route: Oral inactive; negative. (the response was judged equivocal based on a statistically significan | End Point: In vivo micronucleus, Test System: Micronucleated normochromatic erythrocytes in peripheral blood, Species: Mouse, Strain/Sex: B6C3F1/Male, Route: Oral inactive; negative | Test System: Ames Salmonella typhimurium, Strain/Indicator: TA97, Metabolic Activation: Hamster, Liver, S-9, Aroclor 1254 (10%), Method: Preincubation inactive; negative | Test System: Ames Salmonella typhimurium, Strain/Indicator: TA97, Metabolic Activation: Hamster, Liver, S-9, Aroclor 1254 (30%), Method: Preincubation inactive; negative | Test System: Ames Salmonella typhimurium, Strain/Indicator: TA97, Metabolic Activation: None, Method: Preincubation inactive; negative | Test System: Ames Salmonella typhimurium, Strain/Indicator: TA97, Metabolic Activation: Rat, Liver, S-9, Aroclor 1254 (10%), Method: Preincubation inactive; negative | Test System: Ames Salmonella typhimurium, Strain/Indicator: TA97, Metabolic Activation: Rat, Liver, S-9, Aroclor 1254 (30%), Method: Preincubation inactive; negative | Test System: Ames Salmonella typhimurium, Strain/Indicator: TA98, Metabolic Activation: Hamster, Liver, S-9, Aroclor 1254 (10%), Method: Preincubation inactive; negative | Test System: Ames Salmonella typhimurium, Strain/Indicator: TA98, Metabolic Activation: Hamster, Liver, S-9, Aroclor 1254 (30%), Method: Preincubation inactive; negative | Test System: Ames Salmonella typhimurium, Strain/Indicator: TA98, Metabolic Activation: None, Method: Preincubation inactive; negative | Test System: Ames Salmonella typhimurium, Strain/Indicator: TA98, Metabolic Activation: Rat, Liver, S-9, Aroclor 1254 (10%), Method: Preincubation inactive; negative | Test System: Ames Salmonella typhimurium, Strain/Indicator: TA98, Metabolic Activation: Rat, Liver, S-9, Aroclor 1254 (30%), Method: Preincubation inactive; negative | Test System: Ames Salmonella typhimurium, Strain/Indicator: TA100, Metabolic Activation: Hamster, Liver, S-9, Aroclor 1254 (10%), Method: Preincubation inactive; negative | Test System: Ames Salmonella typhimurium, Strain/Indicator: TA100, Metabolic Activation: Hamster, Liver, S-9, Aroclor 1254 (30%), Method: Preincubation inactive; negative | Test System: Ames Salmonella typhimurium, Strain/Indicator: TA100, Metabolic Activation: None, Method: Preincubation inactive; negative | Test System: Ames Salmonella typhimurium, Strain/Indicator: TA100, Metabolic Activation: Rat, Liver, S-9, Aroclor 1254 (10%), Method: Preincubation inactive; negative | Test System: Ames Salmonella typhimurium, Strain/Indicator: TA100, Metabolic Activation: Rat, Liver, S-9, Aroclor 1254 (30%), Method: Preincubation inactive; negative | Test System: Ames Salmonella typhimurium, Strain/Indicator: TA1535, Metabolic Activation: Hamster, Liver, S-9, Aroclor 1254 (10%), Method: Preincubation inactive; negative | Test System: Ames Salmonella typhimurium, Strain/Indicator: TA1535, Metabolic Activation: Hamster, Liver, S-9, Aroclor 1254 (30%), Method: Preincubation inactive; negative | Test System: Ames Salmonella typhimurium, Strain/Indicator: TA1535, Metabolic Activation: None, Method: Preincubation inactive; negative | Test System: Ames Salmonella typhimurium, Strain/Indicator: TA1535, Metabolic Activation: Rat, Liver, S-9, Aroclor 1254 (10%), Method: Preincubation inactive; negative | Test System: Ames Salmonella typhimurium, Strain/Indicator: TA1535, Metabolic Activation: Rat, Liver, S-9, Aroclor 1254 (30%), Method: Preincubation inactive; negative | Test System: E. coli, Strain/Indicator: WP2 uvrA/pKM101, Metabolic Activation: None, Method: Preincubation inactive; negative | Test System: E. coli, Strain/Indicator: WP2 uvrA/pKM101, Metabolic Activation: Rat, Liver, S-9, Aroclor 1254 (10%), Method: Preincubation inactive; negative

OC1c2cccc3ccc4c5ccccc5cc1c4c23 (stereo unspecified)
inactive: Test System: AMES SALMONELLA TYPHIMURIUM, Strain/Indicator: TA98, Metabolic Activation: RAT, LIVER, CYTOSOL, KCL, Method: PREINCUBATION inactive; negative | Test System: AMES SALMONELLA TYPHIMURIUM, Strain/Indicator: TA98, Metabolic Activation: RAT, LIVER, PAPS, KCL, Method: PREINCUBATION inactive; negative
active: Test System: AMES SALMONELLA TYPHIMURIUM, Strain/Indicator: TA98, Metabolic Activation: HUMAN, LIVER, CYTOSOL, PAPS, Method: PREINCUBATION active; positive | [1] active; positive | Test System: AMES SALMONELLA TYPHIMURIUM, Strain/Indicator: TA98, Metabolic Activation: RAT, LIVER, CYTOSOL, PAPS, KCL, Method: PREINCUBATION active; positive | Test System: AMES SALMONELLA TYPHIMURIUM, Strain/Indicator: TA98, Metabolic Activation: RAT, LIVER, CYTOSOL, PAPS, Method: PREINCUBATION active; positive | Test System: AMES SALMONELLA TYPHIMURIUM, Strain/Indicator: TA98, Metabolic Activation: RAT, LIVER, S-9, NADPH, Method: PREINCUBATION active; positive

OC(CCl)CCl
inactive: Test System: AMES SALMONELLA TYPHIMURIUM, Strain/Indicator: TA97, Metabolic Activation: NONE, Method: PREINCUBATION inactive; negative | Test System: AMES SALMONELLA TYPHIMURIUM, Strain/Indicator: TA97, Metabolic Activation: RAT, LIVER, S-9, AROCLOR 1254 (10%), Method: PREINCUBATION inactive; negative | [1] inactive; negative | Test System: AMES SALMONELLA TYPHIMURIUM, Strain/Indicator: TA98, Metabolic Activation: RAT, LIVER, S-9, AROCLOR 1254 (10%), Method: PREINCUBATION inactive; negative
active: Test System: AMES SALMONELLA TYPHIMURIUM, Strain/Indicator: TA97, Metabolic Activation: HAMSTER, LIVER, S-9, AROCLOR 1254 (10%), Method: PREINCUBATION active; positive | Test System: AMES SALMONELLA TYPHIMURIUM, Strain/Indicator: TA98, Metabolic Activation: HAMSTER, LIVER, S-9, AROCLOR 1254 (10%), Method: PREINCUBATION active; positive | Test System: AMES SALMONELLA TYPHIMURIUM, Strain/Indicator: TA100, Metabolic Activation: ADH AND NAD+ (5 OR 50 µL), Method: PREINCUBATION active; positive | Test System: AMES SALMONELLA TYPHIMURIUM, Strain/Indicator: TA100, Metabolic Activation: HAMSTER, LIVER, S-9, AROCLOR 1254 (10%), Method: PREINCUBATION active; positive | Test System: AMES SALMONELLA TYPHIMURIUM, Strain/Indicator: TA100, Metabolic Activation: MOUSE, LIVER, S-9, PHENOBARBITAL, Method: STANDARD PLATE active; positive | Test System: AMES SALMONELLA TYPHIMURIUM, Strain/Indicator: TA100, Metabolic Activation: NONE, Method: PREINCUBATION active; positive | Test System: AMES SALMONELLA TYPHIMURIUM, Strain/Indicator: TA100, Metabolic Activation: NONE, Method: STANDARD PLATE active; positive | Test System: AMES SALMONELLA TYPHIMURIUM, Strain/Indicator: TA100, Metabolic Activation: RAT, LIVER, S-9, AROCLOR 1254 (10%), Method: PREINCUBATION active; positive | Test System: AMES SALMONELLA TYPHIMURIUM, Strain/Indicator: TA100, Metabolic Activation: RAT, LIVER, S-9, AROCLOR 1254 (NAD+), Method: PREINCUBATION active; positive | Test System: AMES SALMONELLA TYPHIMURIUM, Strain/Indicator: TA100, Metabolic Activation: RAT, LIVER, S-9, AROCLOR 1254 (NADP+), Method: PREINCUBATION active; positive | Test System: AMES SALMONELLA TYPHIMURIUM, Strain/Indicator: TA100, Metabolic Activation: RAT, LIVER, S-9, PCB, Method: STANDARD PLATE active; positive | Test System: AMES SALMONELLA TYPHIMURIUM, Strain/Indicator: TA100, Metabolic Activation: RAT, LIVER, S-9, PHENOBARBITAL, Method: STANDARD PLATE active; positive | Test System: AMES SALMONELLA TYPHIMURIUM, Strain/Indicator: TA1535, Metabolic Activation: ADH AND NAD+ (50 µL), Method: PREINCUBATION active; positive | Test System: AMES SALMONELLA TYPHIMURIUM, Strain/Indicator: TA1535, Metabolic Activation: HAMSTER, LIVER, S-9, AROCLOR 1254 (10%), Method: PREINCUBATION active; positive | Test System: AMES SALMONELLA TYPHIMURIUM, Strain/Indicator: TA1535, Metabolic Activation: NONE, Method: PREINCUBATION active; positive | Test System: AMES SALMONELLA TYPHIMURIUM, Strain/Indicator: TA1535, Metabolic Activation: NONE, Method: STANDARD PLATE active; positive | Test System: AMES SALMONELLA TYPHIMURIUM, Strain/Indicator: TA1535, Metabolic Activation: RAT, LIVER, S-9, AROCLOR 1254 (10%), Method: PREINCUBATION active; positive | Test System: AMES SALMONELLA TYPHIMURIUM, Strain/Indicator: TA1535, Metabolic Activation: RAT, LIVER, S-9, AROCLOR 1254 (ADH AND NAD+), Method: PREINCUBATION active; positive | Test System: AMES SALMONELLA TYPHIMURIUM, Strain/Indicator: TA1535, Metabolic Activation: RAT, LIVER, S-9, AROCLOR 1254 (NADP+), Method: PREINCUBATION active; positive | Test System: AMES SALMONELLA TYPHIMURIUM, Strain/Indicator: TA1535, Metabolic Activation: RAT, LIVER, S-9, PCB, AROCLOR 1254, Method: STANDARD PLATE active; positive
